In the SangsterLogP compilation:

Compound | logP
C=CC(=O)OCC | 1.2
CCCCOCCOCCOC(C)=O | 1.77
CCCCOC(=O)c1ccccc1C(=O)OCc1ccccc1 | 4.5
CC(=O)OCCl | 0.75
OCCOCCO | -1.98
COCCOCCO | -1.1
COS(=O)(=O)OC | 0.03
C/C=C/C=O | 0.6
C=C(C)CCl | 1.98
CC(C)C=O | 0.4
CCCCCOC(C)=O | 2
CCCCC(CC)COC(=O)CCCCC(=O)OCC(CC)CCCC (stereo not drawn) | 8.1
CCOCCOC(C)=O | 0.24
O=C1OC(=O)c2ccccc21 | 0.7
OCCS | -0.06
CC(C)CC=O | 1.3
CC[C@H](C)N | 0.6
C=CC(=O)O | 0.31
OCC#CCO | -0.73
CCCCCCCCCCO | 4.2
O=P(OCCCl)(OCCCl)OCCCl | 0.5
COCCOCCOCCO | -0.7
C=CCCl | 3
Cc1ccc(S(=O)(=O)O)cc1 | 0.09
OCCOCCOCCO | -1.2
NCCNCCN | -1.3
C1=CC2C3C=CC(C3)C2C1 (stereo not drawn) | 2.9
CC(C)C(=O)O | 0.88
